Test results reported in patent US20170268027A1, “METHOD FOR SYNTHESIS OF FATTY ACIDS” (priority 2014, published 2017).
Like-named read-outs stand apart in the source and are kept apart here.

Legend:
[1] = test system: Yarrowia lipolytica JMY3501; experiment: Culture D: fed-batch culture of Y. lipolytica JMY3501 with cerulenin pulse (fatty acid profile); type: cell-based
Candida lypolytica = settings: cited from earlier work
Y. lipolytica = experiment: preliminary dose studies of cerulenin on growth of Y. lipolytica; type: cell-based, Yarrowia lipolytica; settings: doses tested 1 to 25 mgcerulenin·gx^−1
Yarrowia lipolytica W29 = experiment: Culture B: fed-batch culture of Y. lipolytica W29 under nitrogen limitation with cerulenin pulse (growth, fatty acid profile); type: cell-based; parameters: Length of the carbon chain: unit not given here
[2] = between injection and 3 h after injection
[3] = −2 h (before the pulse, baseline)

C/C=C/C/C=C/CCC(=O)[C@H]1O[C@H]1C(N)=O [cerulenin]
effect on accumulation of short-chain fatty acids ([1]; 0.25 mgcerulenin·gx^−1, lipid accumulation phase): increase the accumulation of short-chain fatty acids | C12 content in the fatty acid composition ([1]; after pulse of 0.25 mgcerulenin·gx^−1 (4% before)): 7% | C14 content in the fatty acid composition ([1]; after pulse of 0.25 mgcerulenin·gx^−1 (7% before)): 14% | effect on growth (Candida lypolytica; substrate containing n-tetradecane to n-octadecane): without exerting any effect | effect on growth (Candida lypolytica; substrate containing n-undecane or n-dodecane): completely blocks the growth | dose that completely inhibits growth (Y. lipolytica): 15 mgcerulenin·gx^−1 | Degree of unsaturation (Yarrowia lipolytica W29; 0 h (time of the pulse)): 0.95 | Length of the carbon chain (Yarrowia lipolytica W29; 0 h (time of the pulse)): 16.98 | time of appearance of short-chain fatty acids after the pulse (Yarrowia lipolytica W29; 7 mgcerulenin·gx^−1): 15 min | culture time after which the effect of partial inhibition of elongation kinetics disappeared (Yarrowia lipolytica W29; 7 mgcerulenin·gx^−1 pulse): 9 h | increase of mass content of palmitic acid (C16:0) relative to before the pulse (Yarrowia lipolytica W29; 3 h after pulse): 0.014 gAG·gx^−1 | increase of mass content of palmitoleic acid (C16:1) relative to before the pulse (Yarrowia lipolytica W29; 3 h after pulse): 0.023 gAG·gx^−1 | Degree of unsaturation (Yarrowia lipolytica W29; +15 min. after the pulse): 0.92 | Length of the carbon chain (Yarrowia lipolytica W29; +15 min. after the pulse): 16.83 | Degree of unsaturation (Yarrowia lipolytica W29; +1 h after the pulse): 0.73 | Length of the carbon chain (Yarrowia lipolytica W29; +1 h after the pulse): 16.3 | Degree of unsaturation (Yarrowia lipolytica W29; +3 h after the pulse): 0.75 | Length of the carbon chain (Yarrowia lipolytica W29; +3 h after the pulse): 15.3 | accumulation of short-chain fatty acids (Yarrowia lipolytica W29; after 3 h of culture after the pulse of 7 mgcerulenin·gx^−1): 24.5% | mass fraction of the fatty acid C18:3 (Yarrowia lipolytica W29; after the pulse): 6% | mass fraction F4,8 multiplied by (Yarrowia lipolytica W29; at 3 h): 70 | mass fraction F9,12 multiplied by (Yarrowia lipolytica W29; at 3 h): 28 | mass fraction F13,15 multiplied by (Yarrowia lipolytica W29; at 3 h): 15 | factor of multiplication of the specific rate of synthesis of short-chain or medium-chain fatty acid (Yarrowia lipolytica W29; before vs 3 h after the pulse): 14 | average degree of unsaturation of neo-synthesised fatty acids (Yarrowia lipolytica W29; [2]): 0.6 | average number of carbon atoms of neo-synthesised fatty acids (Yarrowia lipolytica W29; [2]): 12.74 carbon atoms | effect on the growth dynamic of the yeast (Yarrowia lipolytica W29; dose 7 μgcerulenin·mgx^−1, nitrogen limitation): no effect | total fatty acids accumulated (Yarrowia lipolytica W29; during the 10 h following the cerulenin pulse): 3% | variation of the growth rate (Yarrowia lipolytica W29; during the 10 h following the first injection, 7 mgcerulenin·gx^−1): less than 5% | specific speed of production of fatty acid (Yarrowia lipolytica W29; following the addition of cerulenin (0.004 before)): 0.0017 gAG·gx·h^−1 | variation of mass content of fatty acids C4:0-C8:0 relative to before the pulse (Yarrowia lipolytica W29; in 3 h): 0.05 gAG·gx^−1 | variation of mass content of fatty acids C9:0-C12:0 relative to before the pulse (Yarrowia lipolytica W29; in 3 h): 0.07 gAG·gx^−1 | variation of mass content of fatty acids C13:0-C15:0 relative to before the pulse (Yarrowia lipolytica W29; in 3 h): 0.07 gAG·gx^−1 | Degree of unsaturation (Yarrowia lipolytica W29; [3]): 0.97 | Length of the carbon chain (Yarrowia lipolytica W29; [3]): 16.97
